{
  "source": "patent US10457710B2",
  "about": "“Antimicrobial peptides, their variants and uses” (priority 2015, dated 2019)",
  "assay_type_in_all_cases": "cell-based",
  "key": {"[1]": {"system": "clinical strains of E. cloacae", "assay": "MIC, microdilution, clinical strains", "conditions": "0.02% BSA, 0.2% acetic acid", "how_it_was_run": "(§1)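 MIC = lowest peptide concentration without visual growth after 20–24 h at 37° C. Range 0.125–128 μg/ml, inoculum 5.0×10^5 cfu/ml, microdilution format. Antifungal tests used potato dextrose broth; bacterial tests used MH broth.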"}, "[2]": {"system": "clinical strains of E. coli", "assay": "MIC, microdilution, clinical strains", "conditions": "microdilution, Muller Hinton broth-cation adjusted, 0.02% BSA, 0.2% acetic acid", "how_it_was_run": "as §1"}, "[3]": {"system": "clinical strains of K. pneumoniae", "assay": "MIC, microdilution, clinical strains", "conditions": "0.02% BSA, 0.2% acetic acid", "how_it_was_run": "as §1"}, "[4]": {"system": "clinical strains of P. aeruginosa", "assay": "MIC, microdilution, clinical strains", "conditions": "0.02% BSA, 0.2% acetic acid", "how_it_was_run": "as §1"}, "[5]": {"system": "clinical strains of Proteus mirabilis", "assay": "MIC, microdilution, clinical strains", "conditions": "0.02% BSA, 0.2% acetic acid", "how_it_was_run": "as §1"}, "[6]": {"system": "clinical strains of S. aureus", "assay": "MIC, microdilution, clinical strains", "conditions": "0.02% BSA, 0.2% acetic acid", "how_it_was_run": "as §1"}, "[7]": {"system": "clinical strains of S. pneumoniae", "assay": "MIC, microdilution, clinical strains", "conditions": "0.02% BSA, 0.2% acetic acid", "how_it_was_run": "as §1"}, "[8]": {"system": "clinical strains of Serratia marcescens", "assay": "MIC, microdilution, clinical strains", "conditions": "0.02% BSA, 0.2% acetic acid", "how_it_was_run": "as §1"}, "[9]": {"system": "clinical strains of Acinetobacter baumannii", "assay": "MIC, microdilution, clinical strains", "design": "unit: μg/ml", "conditions": "0.02% BSA, 0.2% acetic acid", "procedure": "Minimum inhibition concetrations (MICs) were determined against Escherichia coli (ATCC 25922), Staphylococcus aureus (ATCC 25923), Klebsiella pneumoniae (ATCC 10031) and Pseudomonas aeruginosa (ATCC 27853). Also clinical strains of E. coli, K. pneumoniae, E. cloacae, P. aeruginosa, Serratia marcescens, Proteus mirabilis, S. pneumoniae, Acinetobacter baumannii, A. johnsonii and S. aureus were used for MICs assays. Additionally, clinical strains of yeast including Candida albicans, C. glabrata, C. parapsilosis and C. quillermondiae were used. The susceptibility of these microorganisms to Chain peptides were determined using micro broth dilution assay. Colonies of the respective microorganism from Muller Hinton (MH) agar plates incubated overnight were suspended in MH broth media and final concentration of microorganism was adjusted to 5.0×10^5 cfu/ml. An aliquot of 10 μl of each Chain peptide, or gentamicin, tetracycline as reference antibiotics were added in differing concentrations along with 90 μl of bacterial suspension to 96 well polypropylene plates and incubated at 37° C. for 20 to 24 hours. Concentrations of Chain peptides and reference antibiotics ranged from 0.125 to 128 μg/ml and the MICs were recorded as the lowest concentration with no visual growth of bacteria. Similarly, antifungal MICs were tested in Potato dextrose broth.\nClinical strains of yeasts including Candida albicans, C. glabrata, C. parapsilosis and C. quillermondiae were also tested with the 12 Chain peptides. The minimum inhibitory concentration (MICs) varied between these peptides and are presented in Tables 4a, 4b, 4c and 5a, 5b, 5c. Peptides Chain 105, 201 and 308 are broad spectrum antimicrobials with MICs between 0.5-32 μg/ml against all the bacteria and yeasts tested, except Serratia marcescens and Proteus mirabilis, against which the MICs were between 64-128 μg/ml. Peptide Chain 306 has narrow spectrum activity against E. coli at 1 μg/ml and for the rest of the bacterial strains at >32 μg/ml (FIG. 10c)."}, "[10]": {"system": "C. glabrata", "assay": "MIC, clinical yeast strains", "conditions": "D-form peptide, concentrations tested 0.125 to 128 μg/ml", "how_it_was_run": "as §1"}, "[11]": {"system": "C. parapsilosis", "assay": "MIC, clinical yeast strains", "conditions": "D-form peptide, concentrations tested 0.125 to 128 μg/ml", "how_it_was_run": "as §1"}, "[12]": {"system": "Candida albicans", "assay": "MIC, clinical yeast strains", "conditions": "D-form peptide, concentrations tested 0.125 to 128 μg/ml", "how_it_was_run": "as §1"}, "[13]": {"system": "C. quillermondiae", "assay": "MIC, clinical yeast strains", "conditions": "clinical yeast strain 1; D-form peptide; concentrations tested 0.125 to 128 μg/ml", "how_it_was_run": "as §1"}},
  "note": "Where a SMILES comes first, the peptide text is derived from it. [ ]: non-standard residue; d: D form.",
  "data": [
    {"smiles": "CC[C@@H](C)[C@@H](NC(=O)[C@@H](Cc1c[nH]c2ccccc12)NC(=O)[C@H](N)CCCCN)C(=O)N[C@@H](C(=O)N[C@H](Cc1c[nH]c2ccccc12)C(=O)N[C@H](CCCNC(=N)N)C(=O)N[C@H](Cc1c[nH]c2ccccc12)C(=O)N[C@H](CCCNC(=N)N)C(=O)N[C@H](Cc1ccccc1)C(=O)N[C@H](CCCCN)C(=O)N[C@H](CCCNC(=N)N)C(=O)O)C(C)C", "note": "[Chain201D] (H-[dK][dW][dI][dV][dW][dR][dW][dR][dF][dK][dR]-OH)", "values": [
      {"measurement": "Minimum inhibitory concentration", "setting": "[1]; Enterobacter cloacae strain 1, Muller Hinton broth-cation adjusted", "result": 1},
      {"measurement": "Minimum inhibitory concentration", "setting": "[1]; Enterobacter cloacae strain 2, Muller Hinton broth-cation adjusted", "result": 2},
      {"measurement": "Minimum inhibitory concentration", "setting": "[1]; Enterobacter cloacae strain 3, Muller Hinton broth-cation adjusted", "result": 2},
      {"measurement": "Minimum inhibitory concentration", "setting": "[1]; Enterobacter cloacae strain 4, Muller Hinton broth-cation adjusted", "result": 2},
      {"measurement": "Minimum inhibitory concentration", "setting": "[1]; Enterobacter cloacae strain 5, Muller Hinton broth-cation adjusted", "result": 1},
      {"measurement": "Minimum inhibitory concentration", "setting": "[2]; Escherichia coli strain 1", "result": 16},
      {"measurement": "Minimum inhibitory concentration", "setting": "[2]; Escherichia coli strain 2", "result": 1},
      {"measurement": "Minimum inhibitory concentration", "setting": "[2]; Escherichia coli strain 3", "result": 1},
      {"measurement": "Minimum inhibitory concentration", "setting": "[2]; Escherichia coli strain 4", "result": 1},
      {"measurement": "Minimum inhibitory concentration", "setting": "[2]; Escherichia coli strain 5", "result": 1},
      {"measurement": "Minimum inhibitory concentration", "setting": "[3]; Klebsiella pneumoniae strain 1, Muller Hinton broth-cation adjusted", "result": 2},
      {"measurement": "Minimum inhibitory concentration", "setting": "[3]; Klebsiella pneumoniae strain 2, Muller Hinton broth-cation adjusted", "result": 2},
      {"measurement": "Minimum inhibitory concentration", "setting": "[3]; Klebsiella pneumoniae strain 3, Muller Hinton broth-cation adjusted", "result": 4},
      {"measurement": "Minimum inhibitory concentration", "setting": "[3]; Klebsiella pneumoniae strain 4, Muller Hinton broth-cation adjusted", "result": 4},
      {"measurement": "Minimum inhibitory concentration", "setting": "[3]; Klebsiella pneumoniae strain 5, Muller Hinton broth-cation adjusted", "result": 2},
      {"measurement": "Minimum inhibitory concentration", "setting": "[4]; Pseudomonas aeruginosa strain 1, Muller Hinton broth-cation adjusted", "result": 4},
      {"measurement": "Minimum inhibitory concentration", "setting": "[4]; Pseudomonas aeruginosa strain 2, Muller Hinton broth-cation adjusted", "result": 4},
      {"measurement": "Minimum inhibitory concentration", "setting": "[4]; Pseudomonas aeruginosa strain 3, Muller Hinton broth-cation adjusted", "result": 4},
      {"measurement": "Minimum inhibitory concentration", "setting": "[4]; Pseudomonas aeruginosa strain 4, Muller Hinton broth-cation adjusted", "result": 2},
      {"measurement": "Minimum inhibitory concentration", "setting": "[4]; Pseudomonas aeruginosa strain 5, Muller Hinton broth-cation adjusted", "result": 2},
      {"measurement": "Minimum inhibitory concentration", "setting": "[5]; Proteus mirabilis strain 1, Muller Hinton broth-cation adjusted", "result": ">128"},
      {"measurement": "Minimum inhibitory concentration", "setting": "[5]; Proteus mirabilis strain 2, Muller Hinton broth-cation adjusted", "result": 32},
      {"measurement": "Minimum inhibitory concentration", "setting": "[5]; Proteus mirabilis strain 3, Muller Hinton broth-cation adjusted", "result": 64},
      {"measurement": "Minimum inhibitory concentration", "setting": "[5]; Proteus mirabilis strain 4, Muller Hinton broth-cation adjusted", "result": ">128"},
      {"measurement": "Minimum inhibitory concentration", "setting": "[5]; Proteus mirabilis strain 5, Muller Hinton broth-cation adjusted", "result": ">128"},
      {"measurement": "Minimum inhibitory concentration", "setting": "[6]; Staphylococcus aureus strain 1, Muller Hinton broth-cation adjusted", "result": 1},
      {"measurement": "Minimum inhibitory concentration", "setting": "[6]; Staphylococcus aureus strain 2, Muller Hinton broth-cation adjusted", "result": 1},
      {"measurement": "Minimum inhibitory concentration", "setting": "[6]; Staphylococcus aureus strain 3, Muller Hinton broth-cation adjusted", "result": 1},
      {"measurement": "Minimum inhibitory concentration", "setting": "[6]; Staphylococcus aureus strain 4, Muller Hinton broth-cation adjusted", "result": 1},
      {"measurement": "Minimum inhibitory concentration", "setting": "[6]; Staphylococcus aureus strain 5, Muller Hinton broth-cation adjusted", "result": 1},
      {"measurement": "Minimum inhibitory concentration", "setting": "[7]; Streptococcus pneumoniae strain 1, Muller Hinton broth-cation adjusted", "result": 8},
      {"measurement": "Minimum inhibitory concentration", "setting": "[7]; Streptococcus pneumoniae strain 2, Muller Hinton broth-cation adjusted", "result": 4},
      {"measurement": "Minimum inhibitory concentration", "setting": "[7]; Streptococcus pneumoniae strain 3, Muller Hinton broth-cation adjusted", "result": 2},
      {"measurement": "Minimum inhibitory concentration", "setting": "[7]; Streptococcus pneumoniae strain 4, Muller Hinton broth-cation adjusted", "result": 4},
      {"measurement": "Minimum inhibitory concentration", "setting": "[7]; Streptococcus pneumoniae strain 5, Muller Hinton broth-cation adjusted", "result": 4},
      {"measurement": "Minimum inhibitory concentration", "setting": "[8]; Serratia marcescens strain 1, Muller Hinton broth-cation adjusted", "result": 64},
      {"measurement": "Minimum inhibitory concentration", "setting": "[8]; Serratia marcescens strain 2, Muller Hinton broth-cation adjusted", "result": 64},
      {"measurement": "Minimum inhibitory concentration", "setting": "[8]; Serratia marcescens strain 3, Muller Hinton broth-cation adjusted", "result": 64},
      {"measurement": "Minimum inhibitory concentration", "setting": "[8]; Serratia marcescens strain 4, Muller Hinton broth-cation adjusted", "result": 64},
      {"measurement": "Minimum inhibitory concentration", "setting": "[8]; Serratia marcescens strain 5, Muller Hinton broth-cation adjusted", "result": 128},
      {"measurement": "Minimum inhibitory concentration", "setting": "[9]; Acinetobacter baumannii strain 1, Muller Hinton broth-cation adjusted", "result": 4},
      {"measurement": "Minimum inhibitory concentration", "setting": "[9]; Acinetobacter baumannii strain 2, Muller Hinton broth-cation adjusted", "result": 4},
      {"measurement": "Minimum inhibitory concentration", "setting": "[9]; Acinetobacter baumannii strain 3, Muller Hinton broth-cation adjusted", "result": 4},
      {"measurement": "Minimum inhibitory concentration", "setting": "[9]; Acinetobacter baumannii strain 4, Muller Hinton broth-cation adjusted", "result": 4},
      {"measurement": "Minimum inhibitory concentration", "setting": "[9]; Acinetobacter baumannii strain 5, Muller Hinton broth-cation adjusted", "result": 4},
      {"measurement": "Minimum inhibitory concentration, C. glabrata strain 1", "setting": "[10]; clinical yeast strain 1", "result": 8},
      {"measurement": "Minimum inhibitory concentration, C. glabrata strain 2", "setting": "[10]; clinical yeast strain 2", "result": 8},
      {"measurement": "Minimum inhibitory concentration, C. glabrata strain 3", "setting": "[10]; clinical yeast strain 3", "result": 8},
      {"measurement": "Minimum inhibitory concentration, C. glabrata strain 4", "setting": "[10]; clinical yeast strain 4", "result": 64},
      {"measurement": "Minimum inhibitory concentration, C. parapsilosis strain 1", "setting": "[11]; clinical yeast strain 1", "result": 8},
      {"measurement": "Minimum inhibitory concentration, C. parapsilosis strain 2", "setting": "[11]; clinical yeast strain 2", "result": 8},
      {"measurement": "Minimum inhibitory concentration, C. parapsilosis strain 3", "setting": "[11]; clinical yeast strain 3", "result": 8},
      {"measurement": "Minimum inhibitory concentration, C. parapsilosis strain 4", "setting": "[11]; clinical yeast strain 4", "result": 8},
      {"measurement": "Minimum inhibitory concentration, Candida albicans strain 1", "setting": "[12]; clinical yeast strain 1", "result": 16},
      {"measurement": "Minimum inhibitory concentration, Candida albicans strain 2", "setting": "[12]; clinical yeast strain 2", "result": 8},
      {"measurement": "Minimum inhibitory concentration, Candida albicans strain 3", "setting": "[12]; clinical yeast strain 3", "result": 8},
      {"measurement": "Minimum inhibitory concentration, Candida albicans strain 4", "setting": "[12]; clinical yeast strain 4", "result": 16},
      {"measurement": "Minimum inhibitory concentration, Candida albicans strain 5", "setting": "[12]; clinical yeast strain 5", "result": 8},
      {"measurement": "Minimum inhibitory concentration, C. quillermondiae strain 1", "setting": "[13]", "result": 8}
    ]}
  ]
}
